Series [1] has as its target T1, HCMV polymerase (Human cytomegalovirus, UniProt P08546).
T1 construct: made in house; host or cells: recombinant baculovirus-infected SF-9 cells
As to the kind of experiment: HCMV polymerase scintillation proximity assay (modified version). In kind it is biochemical. To be noted: at a concentration of 20 μM; read-out: percent inhibition of the viral polymerase, HCMV. Here is the method: The HCMV polymerase assay is performed using a scintillation proximity assay (SPA) as described in several references, such as N. D. Cook, et al., Pharmaceutical Manufacturing International, pages 49-53 (1992); K. Takeuchi, Laboratory Practice, September issue (1992); U.S. Pat. No. 4,568,649 (1986); which are incorporated by reference herein. Reactions are performed in 96-well plates. The assay is conducted in 100 μl volume with 5.4 mM HEPES (pH 7.5), 11.7 mM KCl, 4.5 mM MgCl2, 0.36 mg/ml BSA, and 90 nM ^3H-dTTP. Assays are run with and without CHAPS, (3-[(3-cholamidopropyl)-dimethylammonio]-1-propane-sulfonate) at a final concentration of 2 mM. HCMV polymerase is diluted in enzyme dilution buffer containing 50% glycerol, 250 mM NaCl, 10 mM HEPES (pH 7.5), 100 μg/ml BSA, and 0.01% sodium azide. The HCMV polymerase, which is expressed in recombinant baculovirus-infected SF-9 cells and purified according to literature procedures, is added at 10% (or 10 μl) of the final reaction volume, i.e., 100 μl. Compounds are diluted in 50% DMSO and 10 μl are added to each well. Control wells contain an equivalent concentration of DMSO. Unless noted otherwise, reactions are initiated via the addition of 6 nM biotinylated poly(dA)-oligo(dT) template/primer to reaction mixtures containing the enzyme, substrate, and compounds of interest. Plates are incubated in a 25° C. or 37° C. H2O bath and terminated via the addition of 40 μl/reaction of 0.5 M EDTA (pH 8) per well. Reactions are terminated within the time-frame during which substrate incorporation is linear and varied depending upon the enzyme and conditions used, i.e., 30 min. for HCMV polymerase. Ten μl of streptavidin-SPA beads (20 mg/ml in PBS/10% glycerol) are added following termination of the reaction. Plates are incubated 10 min. at 37° C., then equilibrated to room temperature, and counted on a Packard Topcount. Linear regressions are performed and IC50's are calculated using computer software.
A modified version of the above HCMV polymerase assay is performed as described above, but with the following changes: Compounds are diluted in 100% DMSO until final dilution into assay buffer. In the previous assay, compounds are diluted in 50% DMSO. 4.5 mM dithiotherotol (DTT) is added to the polymerase buffer. […] All results are listed as the percent inhibition of the viral polymerase at a concentration of 20 μM. In Table 1, the term “nd” refers to activity data not determined.
In general terms: In a scintillation proximity assay essentially only radioactivity close to the scintillant gives light.

In series [2] the target is HSV polymerase (Human herpesvirus 1, UniProt P04293). Briefly: HSV polymerase assay (Table 1, viral polymerase inhibition). In kind it is biochemical. To be noted: at a concentration of 20 μM; read-out: percent inhibition of the viral polymerase, HSV.
Sequence of HSV polymerase (P04293 whole entry): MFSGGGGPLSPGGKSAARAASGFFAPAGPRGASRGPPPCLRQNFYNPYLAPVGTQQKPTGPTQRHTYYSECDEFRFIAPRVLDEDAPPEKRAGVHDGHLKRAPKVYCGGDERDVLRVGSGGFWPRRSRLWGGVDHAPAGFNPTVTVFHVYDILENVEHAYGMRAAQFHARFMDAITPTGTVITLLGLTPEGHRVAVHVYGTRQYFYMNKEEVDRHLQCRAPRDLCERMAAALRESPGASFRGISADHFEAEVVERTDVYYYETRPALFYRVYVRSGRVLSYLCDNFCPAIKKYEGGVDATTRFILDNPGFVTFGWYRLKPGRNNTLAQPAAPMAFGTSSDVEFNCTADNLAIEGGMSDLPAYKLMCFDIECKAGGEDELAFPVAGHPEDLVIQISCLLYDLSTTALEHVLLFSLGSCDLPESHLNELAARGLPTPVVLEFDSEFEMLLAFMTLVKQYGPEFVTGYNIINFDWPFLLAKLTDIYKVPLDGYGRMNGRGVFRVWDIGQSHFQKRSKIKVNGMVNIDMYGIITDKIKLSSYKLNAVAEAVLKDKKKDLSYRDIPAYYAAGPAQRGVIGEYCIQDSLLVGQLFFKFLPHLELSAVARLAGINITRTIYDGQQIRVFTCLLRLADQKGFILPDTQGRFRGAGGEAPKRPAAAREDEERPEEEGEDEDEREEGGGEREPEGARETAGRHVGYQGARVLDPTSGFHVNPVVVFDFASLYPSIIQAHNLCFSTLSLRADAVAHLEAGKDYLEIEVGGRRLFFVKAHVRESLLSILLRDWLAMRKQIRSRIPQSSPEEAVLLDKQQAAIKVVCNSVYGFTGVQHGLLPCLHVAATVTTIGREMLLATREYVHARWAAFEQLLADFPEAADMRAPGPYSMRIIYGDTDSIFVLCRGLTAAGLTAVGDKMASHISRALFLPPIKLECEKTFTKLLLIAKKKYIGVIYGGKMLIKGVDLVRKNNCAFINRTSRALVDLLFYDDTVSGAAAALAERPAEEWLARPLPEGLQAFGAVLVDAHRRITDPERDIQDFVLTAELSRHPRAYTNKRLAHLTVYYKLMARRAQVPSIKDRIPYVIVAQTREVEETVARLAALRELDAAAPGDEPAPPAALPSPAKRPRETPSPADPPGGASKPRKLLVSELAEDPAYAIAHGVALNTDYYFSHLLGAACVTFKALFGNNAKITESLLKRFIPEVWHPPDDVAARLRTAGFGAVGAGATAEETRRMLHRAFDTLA
The target in series [3] is VZV polymerase (Varicella-zoster virus, UniProt P09252). Briefly: VZV polymerase assay (Table 1, viral polymerase inhibition). The settings on record: at a concentration of 20 μM; read-out: percent inhibition of the viral polymerase, VZV. In kind it is biochemical. As for the experimental part:
The HCMV polymerase assay is performed using a scintillation proximity assay (SPA) as described in several references, such as N. D. Cook, et al., Pharmaceutical Manufacturing International, pages 49-53 (1992); K. Takeuchi, Laboratory Practice, September issue (1992); U.S. Pat. No. 4,568,649 (1986); which are incorporated by reference herein. Reactions are performed in 96-well plates. The assay is conducted in 100 μl volume with 5.4 mM HEPES (pH 7.5), 11.7 mM KCl, 4.5 mM MgCl2, 0.36 mg/ml BSA, and 90 nM ^3H-dTTP. Assays are run with and without CHAPS, (3-[(3-cholamidopropyl)-dimethylammonio]-1-propane-sulfonate) at a final concentration of 2 mM. HCMV polymerase is diluted in enzyme dilution buffer containing 50% glycerol, 250 mM NaCl, 10 mM HEPES (pH 7.5), 100 μg/ml BSA, and 0.01% sodium azide. […] Plates are incubated 10 min. at 37° C., then equilibrated to room temperature, and counted on a Packard Topcount. Linear regressions are performed and IC50's are calculated using computer software.
A modified version of the above HCMV polymerase assay is performed as described above, but with the following changes: Compounds are diluted in 100% DMSO until final dilution into assay buffer. […] In Table 1, the term “nd” refers to activity data not determined.

T1 sequence (P08546 whole entry): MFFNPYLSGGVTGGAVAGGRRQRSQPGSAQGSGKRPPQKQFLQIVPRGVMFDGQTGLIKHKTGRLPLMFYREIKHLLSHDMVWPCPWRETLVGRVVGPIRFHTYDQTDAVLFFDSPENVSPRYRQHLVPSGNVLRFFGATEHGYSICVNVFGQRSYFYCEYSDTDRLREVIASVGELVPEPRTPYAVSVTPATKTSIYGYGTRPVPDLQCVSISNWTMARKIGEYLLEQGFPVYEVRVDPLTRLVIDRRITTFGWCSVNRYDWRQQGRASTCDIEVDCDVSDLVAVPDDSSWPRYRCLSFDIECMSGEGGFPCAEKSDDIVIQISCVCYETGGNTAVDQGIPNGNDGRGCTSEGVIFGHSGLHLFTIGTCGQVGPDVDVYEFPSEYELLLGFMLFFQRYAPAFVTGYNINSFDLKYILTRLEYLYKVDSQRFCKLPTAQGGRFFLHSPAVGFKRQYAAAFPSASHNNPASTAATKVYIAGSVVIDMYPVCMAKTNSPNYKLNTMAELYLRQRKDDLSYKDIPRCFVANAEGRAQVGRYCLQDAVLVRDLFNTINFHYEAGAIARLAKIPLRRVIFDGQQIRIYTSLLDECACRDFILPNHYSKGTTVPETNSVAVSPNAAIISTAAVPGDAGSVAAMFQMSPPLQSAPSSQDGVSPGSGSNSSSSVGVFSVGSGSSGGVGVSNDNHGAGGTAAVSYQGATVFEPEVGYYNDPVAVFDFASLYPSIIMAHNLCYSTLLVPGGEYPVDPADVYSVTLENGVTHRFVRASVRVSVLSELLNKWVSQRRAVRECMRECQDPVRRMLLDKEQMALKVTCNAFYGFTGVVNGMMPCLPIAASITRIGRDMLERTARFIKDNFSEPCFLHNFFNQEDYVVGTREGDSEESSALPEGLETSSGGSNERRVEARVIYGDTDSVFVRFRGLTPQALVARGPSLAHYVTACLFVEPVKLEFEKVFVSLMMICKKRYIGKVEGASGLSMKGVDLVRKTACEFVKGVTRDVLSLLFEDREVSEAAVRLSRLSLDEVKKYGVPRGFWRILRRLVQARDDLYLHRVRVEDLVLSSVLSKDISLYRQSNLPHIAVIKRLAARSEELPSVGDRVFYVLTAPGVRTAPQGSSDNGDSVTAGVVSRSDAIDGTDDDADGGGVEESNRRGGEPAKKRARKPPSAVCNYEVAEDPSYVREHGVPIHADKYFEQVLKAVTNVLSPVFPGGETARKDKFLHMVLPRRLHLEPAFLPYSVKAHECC
Sequence of VZV polymerase (P09252 whole entry): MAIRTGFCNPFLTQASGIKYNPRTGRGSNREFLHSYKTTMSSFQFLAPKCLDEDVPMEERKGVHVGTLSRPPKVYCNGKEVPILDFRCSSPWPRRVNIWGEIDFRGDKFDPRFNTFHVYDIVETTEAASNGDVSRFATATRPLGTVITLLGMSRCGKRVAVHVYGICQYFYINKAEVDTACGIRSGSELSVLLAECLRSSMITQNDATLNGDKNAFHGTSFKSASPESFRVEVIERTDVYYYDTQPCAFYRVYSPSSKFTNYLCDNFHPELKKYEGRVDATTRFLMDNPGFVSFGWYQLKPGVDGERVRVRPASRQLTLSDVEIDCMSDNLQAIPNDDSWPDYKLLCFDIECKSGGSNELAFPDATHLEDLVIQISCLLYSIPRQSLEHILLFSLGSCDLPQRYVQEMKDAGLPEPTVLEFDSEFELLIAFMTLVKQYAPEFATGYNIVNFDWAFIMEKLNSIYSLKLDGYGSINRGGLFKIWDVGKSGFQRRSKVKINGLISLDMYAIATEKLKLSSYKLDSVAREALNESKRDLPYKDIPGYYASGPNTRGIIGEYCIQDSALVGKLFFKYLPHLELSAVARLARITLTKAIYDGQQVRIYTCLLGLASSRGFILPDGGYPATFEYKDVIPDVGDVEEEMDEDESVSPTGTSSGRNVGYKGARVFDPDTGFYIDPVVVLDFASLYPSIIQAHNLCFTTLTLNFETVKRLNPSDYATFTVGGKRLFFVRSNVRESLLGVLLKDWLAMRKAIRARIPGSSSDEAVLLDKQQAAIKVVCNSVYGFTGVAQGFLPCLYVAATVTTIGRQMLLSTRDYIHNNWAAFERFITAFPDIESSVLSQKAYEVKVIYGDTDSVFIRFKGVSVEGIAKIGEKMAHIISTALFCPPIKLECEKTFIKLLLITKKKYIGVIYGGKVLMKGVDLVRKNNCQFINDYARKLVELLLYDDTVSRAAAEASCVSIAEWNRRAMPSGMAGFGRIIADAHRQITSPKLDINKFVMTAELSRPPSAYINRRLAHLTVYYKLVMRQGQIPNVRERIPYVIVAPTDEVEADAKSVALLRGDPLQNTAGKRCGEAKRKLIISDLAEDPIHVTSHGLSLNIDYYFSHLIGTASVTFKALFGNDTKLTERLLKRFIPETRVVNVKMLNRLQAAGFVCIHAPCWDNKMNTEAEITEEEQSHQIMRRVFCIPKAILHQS

Usually melting point stands for the temperature, or range, at which the solid turns liquid. `O=C(NCc1ccc(Cl)cc1)c1nnc2ccc(CN3CCOCC3)cc2c1O` [Example 5, N-(4-chlorobenzyl)-4-hydroxy-6-(morpholinylmethyl)-3-cinnolinecarboxylate]: the melting point is 277 to 280 °C (dec.).

For orientation: inhibition means the change of the read-out against control, counted positive when it falls. `O=C(NCc1ccc(Cl)cc1)c1nnc2ccc(CO)cc2c1O` [Example 4, N-(4-chlorobenzyl)-4-hydroxy-6-(hydroxymethyl)-3-cinnolinecarboxamide]: the melting point lay in the range of 296 to 298 °C. The inhibition at 20 µM in series [1] was determined as 51%.

`O=C(NCc1ccc(Cl)cc1)c1nnc2ccc(I)cc2c1O` [Comp. 2, N-(4-chlorobenzyl)-4-hydroxy-6-iodo-3-cinnolinecarboxamide] showed a melting point of 307 to 308 °C. The inhibition at 20 µM in series [1] was more than 100%.

On to `COC(=O)c1ccc2nnc(C(=O)NCc3ccc(Cl)cc3)c(O)c2c1` [Example 3, Methyl 3-{[(4-chlorobenzyl)amino]carbonyl]-4-hydroxy-6-cinnolinecarboxylate], for which the melting point was in the range of 308 to 310 °C. Further, the inhibition at 20 µM in series [1] turned out to be 50%.

Molecule `O=C(NCc1ccc(Cl)cc1)c1n[nH]c2ccccc2c1=O` [Comp. 1, N-(4-chlorobenzyl)-4-oxo-1,4-dihydro-3-cinnolinecarboxamide] came in with a melting point of 269 to 271 °C. Further, the inhibition at 20 µM in series [1] amounted to 90%. In addition, the inhibition at 20 µM in series [2] was 20.8%. Also, the inhibition at 20 µM in series [3] worked out at 10.1%.

For the origin of these results see patent US6458788B1, “4-hydroxycinnoline-3-carboxyamides as antiviral agents” (Pharmacia & Upjohn Company, priority 2000, dated 2002).
